Laboratory results from patent US20040241244A1, “Neuronal growth enhancement by prostaglandin compositions and methods” (NexMed (Holdings) Inc., priority 2003, published 2004).
Where “and” joins values, the source holds several entries; their conditions need not be identical. Equal entries are not always repeated. Where two headings read alike, the source gives them in different places.

Key:
EP2 receptor = EP2 receptor (Mus musculus, UniProt Q62053); conditions: read-out: affinity for the EP2 receptor; cited from earlier work
Sequence of EP2 receptor (Q62053 whole entry): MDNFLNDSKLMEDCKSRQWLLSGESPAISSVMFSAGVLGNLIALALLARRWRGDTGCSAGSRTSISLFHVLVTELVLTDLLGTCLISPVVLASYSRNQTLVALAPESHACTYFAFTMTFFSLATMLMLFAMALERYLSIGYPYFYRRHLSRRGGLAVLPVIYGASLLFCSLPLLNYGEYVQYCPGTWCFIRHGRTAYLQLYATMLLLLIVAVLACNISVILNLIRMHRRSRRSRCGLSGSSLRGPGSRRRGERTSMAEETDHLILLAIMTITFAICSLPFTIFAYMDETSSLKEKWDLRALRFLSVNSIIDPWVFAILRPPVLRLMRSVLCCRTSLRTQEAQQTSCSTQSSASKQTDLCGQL

[1] = system: mouse neuroblastoma cells; conditions: cited from earlier work
[2] = system: cultured mouse dorsal root ganglion neurons; conditions: 20 micromolar, at 2 hours; cited from earlier work
[3] = system: dorsocaudal regions of rat major pelvic ganglia (DCR-MPG); assay: Neurite outgrowth in primary cultures of dorsocaudal regions of rat major pelvic ganglia; assay type: cell-based, Sprague-Dawley rats
Experimental: The dorsocaudal regions of 24 major pelvic ganglia (DCR-MPG) were dissected from Sprague-Dawley rats. Each sample was placed on a reduced-growth factor Matrigel coated glasscover slide in a culture dish filled with serum-free medium. […] The ganglia cultures were incubated at 37° C. in a humidified atmosphere with 5% CO2. Digital photographs were taken of neurite growth after 96 hours.
Growth Factor Reduced Matrigel (Passaniti, A., et al., Lab. Invest. 1992 67:518-528) was purchased from Becton Dickinson (Mountain View, Calif.). Cell culture grade PGE1 was purchased from Sigma Chemical. (St. Louis, Mo.). RPIM-1640 and other cell culture reagents were purchased from GIBCO Invitrogen Corp. (Grand Island, N.Y.).
Male Sprague-Dawley rats, two-months old, were used in this study. All animal care, treatments, and procedures were approved by the institutional Committee on Animal Research. The rats were sacrificed by intraperitoneal injection of sodium pentobarbital (50 mg/kg) followed by bilateral thoracotomy and the removal of the dorsocaudal region of the major pelvic ganglia (DCR-MPG).
Each rat supplied a pair of DCR-MPG; one was used as control and the contralateral ganglion was treated with PGE1. The DCR-MPG isolated from Sprague-Dawley rats were cultured attached to Matrigel-coated glass coverslips. The coverslips were used as the supporting platform to facilitate samples processing for histological staining and examination. Coverslips were coated as follows. Growth Factor Reduced Matrigel (Becton Dickinson, Mountain View, Calif.) was diluted 3-fold in serum-free RPMI-1640 in a 35-mm culture dish on ice. The diluted Matrigel was then spread onto cold sterilized glass coverslips using a sterilized glass slide as spreader. The coated coverslips were placed in 35-mm culture dishes and incubated at 37° C. for 1 hr to allow the Matrigel to solidify. Each freshly dissected DCR-MPG was rinsed in phosphate-buffered saline (PBS), cut into equal thirds, placed on top of Matrigel coated coverslips and covered by 50 μl cold Growth Factor Reduced Matrigel which had been kept in liquid form. After a 5-min incubation at 37° C. to allow the Matrigel to polymerize, 3 ml of serum-free RPMI 1640 medium supplemented with 1×penicillin-streptomycin-fungizone (Cell Culture Facility, University of California, San Francisco) was added. […] The ganglia cultures were maintained at 37° C. in a humidified atmosphere with 5% CO2.
After 2 to 3 days of incubation, the ganglia and outgrowing neurites were stained for nicotinamide adenine dinucleotide phosphate (NADPH) diaphorase as an indication of nitric oxide synthase (NOS) expression. The culture medium was removed from each culture and replaced with a fixative solution of 2% formaldehyde, 0.002% picric acid in 0.1 M phosphate buffer, pH 8.0. After 20 min of fixation, the tissue was rinsed three times, 10 min each, with phosphate buffer, pH 8.0. The tissue was then incubated with 0.1 mM NADPH, 0.2 mM nitroblue tetrazolium, 0.2% Triton X-100 in buffer for approximately 30 min at room temperature with constant microscopic monitoring for color development. When a deep blue color was detected for NADPH-diaphorase positive nerves, the reaction was terminated by washing the tissues with buffer three times, 10 min each. The coverslips containing the ganglia were then mounted onto glass slides using buffered glycerin as mounting medium.
Neurites were photographed using a professional DCS-420 digital camera (Eastman Kodak, Rochester, N.Y.) connected to an Olympus microscope and an Apple Macintosh PowerMac computer. All samples were photographed and the images were stored for later analysis. The digital images were analyzed using Chemilmager 4000 software (Alpha Innotech Corporation, San Leandro, Calif.) to determine the maximum length of the outgrowing neurites fibers.
Statistical analysis was performed using computer software from Primer of Biostatistics, 3rd ed. (Glantz SA, McGraw-Hill, Inc. New York, 1992). […]

[4] = system: mouse neuroblastoma cells; assay: Neurite extension in neuroblastoma cells in culture (Prasad, 1972); assay type: cell-based; conditions: converted from micrograms/ml
Excerpt: “Neurite” is a broad term used to describe both axons and dendrites produced by a nerve cell; most commonly used to cover all cellular processes produced by neurons in culture (Kendrew, J., editor, The Encyclopedia of Molecular Biology, Blackwell Science Ltd., Oxford, 1994, page 709).

[5] = system: patients after nerve sparing RRP; conditions: three months of intracavernous injections three times a week; patients completing treatment; cited from earlier work

Molecule	Kd (EP2 receptor)	optimum concentration for neurite extension [1]	neurite extension [2]	Neurite Growth (Length of longest neurite), Mean ([3]; 1 μM PGE1, 96 hours culture)	Neurite Growth (Length of longest neurite), Mean ([3]; 10 μM PGE1, 96 hours culture)	Neurite Growth (Length of longest neurite), Mean ([3]; 20 μM PGE1, 96 hours culture)	fiber length induced ([3]; 30 μM PGE1)	peak neurite growth (mean ± standard deviation) ([3]; 30 μM PGE1)	Neurite Growth (Length of longest neurite), Mean ([3]; 30 μM PGE1, 96 hours culture)	Neurite Growth (Length of longest neurite), Mean ([3]; 60 μM PGE1, 96 hours culture)	maximum neurite extension at high doses ([3]; 60 μM, 100 μM)	Neurite Growth (Length of longest neurite), Mean ([3]; 100 μM PGE1, 96 hours culture)	effect on neurite outgrowth of NADPH positive cells ([3]; primary cultures, 1-100 μM)	PGE1 concentration at which the maximum effect on neurite outgrowth was observed ([3]; tested at 1, 10, 20, 30, 60 or 100 μM)	optimum concentration for neurite extension [4]	optimum time of exposure [1]	patients reporting recovery of spontaneous erections sufficient for intercourse [5]
CCCCC[C@H](O)/C=C/[C@H]1[C@H](O)CC(=O)[C@@H]1C/C=C\CCCC(=O)O [PGE2, Prostaglandin E2]	~10 nM	same optimum concentration	significantly different from control														
Prostaglandin E1 [PGE1]		about 10 micrograms/ml		168.00 μm	229.33±10.7 μm and 229.33 μm	244.00 μm	250 ± 38.1 µm	250±63 micrometers	250.29 μm	138.00 μm	smaller maximum neurite extension	112.00 μm	enhance neurite outgrowth	30 µM	about 30 micromolar	3 to 5 days	8 of the 12
